PubChem BioAssay AID330 (DTP/NCI, 2004)
Several values for one entry are separate records, joined by “and”; a condition that tells them apart may be missing. Identical values can stand only once. Toxic doses and inconclusive results are not listed.

Tested on: P388 leukemia ip, CD2F1 mice, survival T/C
Test: NCI In Vivo Anticancer Drug Screen. Data for tumor model P388 Leukemia (intraperitoneal) in CD2F1 (CDF1) mice
Conditions: endpoint: median survival time, higher = longer survival
In short: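 Mice carrying the transplanted tumor received test compound or vehicle. Survival was recorded in each group, and the value is the treated-group measurement divided by that of the vehicle-treated control group.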

[1] = dose: 60.0 mg/kg/injection, schedule: Q01DX005 (ip), vehicle: saline with Tween-80
[2] = dose: 120.0 mg/kg/injection, schedule: Q01DX005 (ip), vehicle: saline with Tween-80
[3] = dose: 240.0 mg/kg/injection, schedule: Q01DX005 (ip), vehicle: saline with Tween-80
[4] = dose: 60.0 mg/kg/injection, schedule: Q01DX005 (ip), vehicle: Klucel (hydroxypropylcellulose) (HPC)
[5] = dose: 120.0 mg/kg/injection, schedule: Q01DX005 (ip), vehicle: Klucel (hydroxypropylcellulose) (HPC)
[6] = dose: 240.0 mg/kg/injection, schedule: Q01DX005 (ip), vehicle: Klucel (hydroxypropylcellulose) (HPC)
[7] = dose: 50.0 mg/kg/injection, schedule: Q01DX009 (ip), vehicle: saline with Tween-80
[8] = dose: 100.0 mg/kg/injection, schedule: Q01DX009 (ip), vehicle: saline with Tween-80
[9] = dose: 200.0 mg/kg/injection, schedule: Q01DX009 (ip), vehicle: saline with Tween-80
[10] = dose: 50.0 mg/kg/injection, schedule: Q01DX009 (ip), vehicle: saline
[11] = dose: 100.0 mg/kg/injection, schedule: Q01DX009 (ip), vehicle: saline
[12] = dose: 200.0 mg/kg/injection, schedule: Q01DX009 (ip), vehicle: saline
[13] = dose: 100.0 mg/kg/injection, schedule: Q01DX001 (ip), vehicle: saline with Tween-80
[14] = dose: 200.0 mg/kg/injection, schedule: Q01DX001 (ip), vehicle: saline with Tween-80
[15] = dose: 50.0 mg/kg/injection, schedule: Q01DX005 (ip), vehicle: Klucel (hydroxypropylcellulose) (HPC)
[16] = dose: 100.0 mg/kg/injection, schedule: Q01DX005 (ip), vehicle: Klucel (hydroxypropylcellulose) (HPC)
[17] = dose: 200.0 mg/kg/injection, schedule: Q01DX005 (ip), vehicle: Klucel (hydroxypropylcellulose) (HPC)
[18] = dose: 25.0 mg/kg/injection, schedule: Q01DX009 (ip), vehicle: saline with Tween-80
[19] = dose: 50.0 mg/kg/injection, schedule: Q01DX005 (ip), vehicle: saline
[20] = dose: 100.0 mg/kg/injection, schedule: Q01DX005 (ip), vehicle: saline
[21] = dose: 200.0 mg/kg/injection, schedule: Q01DX005 (ip), vehicle: saline
[22] = dose: 400.0 mg/kg/injection, schedule: Q01DX009 (ip), vehicle: saline with Tween-80
[23] = dose: 50.0 mg/kg/injection, schedule: Q01DX005 (ip), vehicle: saline with Tween-80

Cn1nc(-c2cccnc2)[n+]([O-])c2c(=O)n(C)c(=O)nc1-2
T/C (dose: 45.0 mg/kg/injection, schedule: Q01DX009 (ip), vehicle: saline with Tween-80): 100 % of control | T/C (dose: 90.0 mg/kg/injection, schedule: Q01DX009 (ip), vehicle: saline with Tween-80): 109 % of control | T/C (dose: 180.0 mg/kg/injection, schedule: Q01DX009 (ip), vehicle: saline with Tween-80): 112 % of control

CC(C)(C)NC(=O)Nc1cccc(C(=O)O)c1
T/C [1]: 99 % of control | T/C [2]: 96 % of control | T/C [3]: 105 % of control

O=C(O)CCCCc1ccc(CCCCC(=O)O)c2ccccc12
T/C (dose: 100.0 mg/kg/injection, schedule: Q04DX003 (ip), vehicle: saline with Tween-80): 103 % of control | T/C (dose: 200.0 mg/kg/injection, schedule: Q04DX003 (ip), vehicle: saline with Tween-80): 102 % of control | T/C (dose: 400.0 mg/kg/injection, schedule: Q04DX003 (ip), vehicle: saline with Tween-80): 99 % of control

CCc1nc(-c2ccccc2)nc2c1nc(-c1cccc(C)c1)n2Nc1ccccc1
T/C [4]: 97 % of control | T/C [5]: 94 % of control | T/C [6]: 88 % of control

COc1cc(OC)c(/C=C\c2ccnc3ccccc23)c(OC)c1
T/C [7]: 97 % of control | T/C [8]: 90 % of control | T/C [9]: 104 % of control

C#CCOCC1CO1 (stereo unspecified)
T/C [10]: 110 % of control | T/C [11]: 110 % of control | T/C [12]: 115 % of control

CC1=C(Cl)C(=N\S(=O)(=O)c2ccccc2)/c2ccccc2/C1=N/S(=O)(=O)c1ccccc1
T/C [13]: 95 % of control | T/C [14]: 95 % of control

CN(C)C1CCC(NC2=CC(=O)C=CC2=O)CC1 (stereo unspecified)
T/C (dose: 0.78 mg/kg/injection, schedule: Q01DX005 (ip), vehicle: saline): 101 % of control | T/C (dose: 1.56 mg/kg/injection, schedule: Q01DX005 (ip), vehicle: saline): 97 % of control | T/C (dose: 3.12 mg/kg/injection, schedule: Q01DX005 (ip), vehicle: saline): 97 % of control

CC/C(=C/C(F)(F)C(F)(F)C(F)(F)F)[N+](=O)[O-]
T/C (dose: 25.0 mg/kg/injection, schedule: Q01DX009 (ip), vehicle: Klucel (hydroxypropylcellulose) (HPC)): 96 % of control | T/C (dose: 50.0 mg/kg/injection, schedule: Q01DX009 (ip), vehicle: Klucel (hydroxypropylcellulose) (HPC)): 104 % of control | T/C (dose: 100.0 mg/kg/injection, schedule: Q01DX009 (ip), vehicle: Klucel (hydroxypropylcellulose) (HPC)): 102 % of control

C=CCC(CCCCCCCCCCCCC)C(=O)O (stereo unspecified)
T/C [13]: 104 % of control | T/C [14]: 95 % of control | T/C (dose: 400.0 mg/kg/injection, schedule: Q01DX001 (ip), vehicle: saline with Tween-80): 91 % of control

Cc1cccc(-n2c(N)cc(=O)[nH]c2=S)n1
T/C (dose: 25.0 mg/kg/injection, schedule: Q01DX001 (ip), vehicle: saline with Tween-80): 100 % of control | T/C (dose: 50.0 mg/kg/injection, schedule: Q01DX001 (ip), vehicle: saline with Tween-80): 100 % of control | T/C [13]: 109 % of control

CCOC(=O)C(=NNc1cc(OC)c(Cl)cc1OC)C(=O)OCC
T/C [15]: 94 % of control | T/C [16]: 94 % of control | T/C [17]: 94 % of control

CN(C)C=Nc1cc(Cl)c(Cl)cc1Cl
T/C (dose: 12.5 mg/kg/injection, schedule: Q01DX009 (ip), vehicle: saline with Tween-80): 108 % of control | T/C [18]: 106 % of control | T/C [7]: 106 % of control

CNc1ncnc2c1ncn2C1CCCCO1 (stereo unspecified)
T/C [19]: 102 % of control | T/C [20]: 100 % of control | T/C [21]: 91 % of control

Nc1c(-c2ccc(C3=NCCN3)cc2)[nH]c2cc(C3=NCCN3)ccc12
T/C (dose: 6.25 mg/kg/injection, schedule: Q01DX005 (ip), vehicle: Klucel (hydroxypropylcellulose) (HPC)): 100 % of control | T/C (dose: 12.5 mg/kg/injection, schedule: Q01DX005 (ip), vehicle: Klucel (hydroxypropylcellulose) (HPC)): 118 % of control | T/C [15]: 196 % of control

O=C(O)COc1ccc(I)cc1I
T/C (dose: 100.0 mg/kg/injection, schedule: Q04DX003 (ip), vehicle: Klucel (hydroxypropylcellulose) (HPC)): 110 % of control | T/C (dose: 200.0 mg/kg/injection, schedule: Q04DX003 (ip), vehicle: Klucel (hydroxypropylcellulose) (HPC)): 91 % of control

COc1ccc(C2COc3c(ccc(O)c3O)C2)cc1 (stereo unspecified)
T/C [1]: 104 % of control | T/C [2]: 96 % of control | T/C [3]: 99 % of control

CC(C)(c1ccc(OCC2CO2)cc1)c1ccc(OCC2CO2)cc1 (stereo unspecified)
T/C [18]: 103 % of control | T/C [7]: 103 % of control and 107 % of control | T/C [8]: 103 % of control | T/C [9]: 109 % of control | T/C [22]: 114 % of control

CC1CCCN(CC(O)CN2C[C@@H](C)N(CC(O)CN3CCCC(C)C3)[C@H](C)C2)C1 (stereo partly specified)
T/C (dose: 12.5 mg/kg/injection, schedule: Q01DX005 (ip), vehicle: saline with Tween-80): 100 % of control | T/C (dose: 25.0 mg/kg/injection, schedule: Q01DX005 (ip), vehicle: saline with Tween-80): 100 % of control | T/C [23]: 100 % of control and 112 % of control

O=C(CCCCO)c1nc2ccccc2s1
T/C [4]: 98 % of control | T/C [5]: 102 % of control | T/C [6]: 95 % of control

CCCCC(SC(CC)(C(N)=O)c1ccccc1)C(=O)O (stereo unspecified)
T/C [7]: 108 % of control | T/C [8]: 105 % of control | T/C [9]: 106 % of control | T/C [22]: 97 % of control

c1ccc(-c2c(-c3ccccc3)[c+]2-c2ccccc2)cc1
T/C (dose: 100.0 mg/kg/injection, schedule: Q01DX001 (ip), vehicle: gum acacia): 99 % of control | T/C (dose: 200.0 mg/kg/injection, schedule: Q01DX001 (ip), vehicle: gum acacia): 99 % of control

O=C(Nc1ccc(F)cc1)N1CCCCC1
T/C [1]: 91 % of control | T/C [2]: 99 % of control | T/C [3]: 97 % of control

CN1N(C)P(=S)(Oc2ccccc2)N(C)N(C)P1(=S)Oc1ccccc1 (stereo unspecified)
T/C [4]: 98 % of control | T/C [5]: 98 % of control | T/C [6]: 93 % of control

O=C(O)c1cnc2c(C(F)(F)F)cccc2c1Nc1ccc2c(c1)OCO2
T/C (dose: 7.5 mg/kg/injection, schedule: Q01DX005 (ip), vehicle: Klucel (hydroxypropylcellulose) (HPC)): 92 % of control | T/C (dose: 15.0 mg/kg/injection, schedule: Q01DX005 (ip), vehicle: Klucel (hydroxypropylcellulose) (HPC)): 101 % of control | T/C (dose: 30.0 mg/kg/injection, schedule: Q01DX005 (ip), vehicle: Klucel (hydroxypropylcellulose) (HPC)): 105 % of control | T/C [5]: 101 % of control | T/C [6]: 96 % of control

O=[N+]([O-])C1=CC(=N/Cl)/C=CC/1=N/Cl
T/C (dose: 12.5 mg/kg/injection, schedule: Q01DX005 (ip), vehicle: saline): 105 % of control | T/C (dose: 25.0 mg/kg/injection, schedule: Q01DX005 (ip), vehicle: saline): 100 % of control | T/C [19]: 101 % of control and 97 % of control | T/C [20]: 106 % of control | T/C [21]: 116 % of control

CO/C=C/c1cc2c(cc1Br)OCO2
T/C [1]: 105 % of control | T/C [2]: 111 % of control | T/C [3]: 97 % of control

Cc1ccc2[nH]c(=S)[nH]c2c1
T/C [18]: 95 % of control | T/C [7]: 94 % of control | T/C [8]: 96 % of control | T/C [9]: 93 % of control

CN1CCN(c2ccccc2N)CC1
T/C (dose: 5.0 mg/kg/injection, schedule: Q01DX009 (ip), vehicle: saline with Tween-80): 104 % of control | T/C (dose: 10.0 mg/kg/injection, schedule: Q01DX009 (ip), vehicle: saline with Tween-80): 100 % of control | T/C (dose: 20.0 mg/kg/injection, schedule: Q01DX009 (ip), vehicle: saline with Tween-80): 95 % of control

CC1=CC(C)=Nc2ccccc2N1
T/C [10]: 103 % of control | T/C [11]: 99 % of control and 101 % of control | T/C [12]: 94 % of control

N=c1ccc(=Nc2ccc(N)c3c(O)c4ccccc4c(O)c23)c2c(=O)c3ccccc3c(=O)c1=2
T/C [23]: 103 % of control | T/C (dose: 100.0 mg/kg/injection, schedule: Q01DX005 (ip), vehicle: saline with Tween-80): 94 % of control | T/C (dose: 200.0 mg/kg/injection, schedule: Q01DX005 (ip), vehicle: saline with Tween-80): 92 % of control

COc1ccc(C2OC3=C(Nc4ccc([N+](=O)[O-])cc4N3)C2=O)c(OC)c1 (stereo unspecified)
T/C [15]: 93 % of control | T/C [16]: 101 % of control | T/C [17]: 101 % of control
